In PMC9104438, “Application of a Fluorescence Anisotropy-Based Assay to Quantify Transglutaminase 2 Activity in Cell Lysates” (International Journal of Molecular Sciences, 2022):

Key:
Assay in all cases: FA-based assay, characterization of irreversible inhibitors
hTGase 1 = molecular target: T1, hTGase 1 (Homo sapiens, UniProt P22735)
T1 sequence (P22735 1-817): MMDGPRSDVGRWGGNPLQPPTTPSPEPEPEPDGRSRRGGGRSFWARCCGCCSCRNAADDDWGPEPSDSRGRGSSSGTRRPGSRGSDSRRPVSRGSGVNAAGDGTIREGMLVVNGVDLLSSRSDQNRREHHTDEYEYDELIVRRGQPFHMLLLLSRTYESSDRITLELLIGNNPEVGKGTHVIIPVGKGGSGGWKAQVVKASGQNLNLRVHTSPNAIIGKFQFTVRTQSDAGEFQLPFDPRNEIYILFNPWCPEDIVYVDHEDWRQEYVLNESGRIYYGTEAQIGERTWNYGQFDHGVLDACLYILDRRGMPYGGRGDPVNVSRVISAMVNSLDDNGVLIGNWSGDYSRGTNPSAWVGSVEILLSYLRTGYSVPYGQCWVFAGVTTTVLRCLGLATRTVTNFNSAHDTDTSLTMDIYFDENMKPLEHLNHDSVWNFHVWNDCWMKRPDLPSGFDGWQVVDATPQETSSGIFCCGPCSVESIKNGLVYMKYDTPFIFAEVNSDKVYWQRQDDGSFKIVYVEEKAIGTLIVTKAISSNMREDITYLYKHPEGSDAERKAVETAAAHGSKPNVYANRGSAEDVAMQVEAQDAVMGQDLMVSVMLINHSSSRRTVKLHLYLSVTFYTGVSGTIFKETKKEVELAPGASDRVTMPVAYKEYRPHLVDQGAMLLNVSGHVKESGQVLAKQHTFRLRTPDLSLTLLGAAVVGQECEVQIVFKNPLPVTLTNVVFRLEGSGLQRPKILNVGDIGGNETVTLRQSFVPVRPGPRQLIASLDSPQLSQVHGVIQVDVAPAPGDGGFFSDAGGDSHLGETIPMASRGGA

hFXIIIa = molecular target: T2, hFXIIIa (Homo sapiens, UniProt P00488)
T2 sequence (P00488 39-732 limits assumed): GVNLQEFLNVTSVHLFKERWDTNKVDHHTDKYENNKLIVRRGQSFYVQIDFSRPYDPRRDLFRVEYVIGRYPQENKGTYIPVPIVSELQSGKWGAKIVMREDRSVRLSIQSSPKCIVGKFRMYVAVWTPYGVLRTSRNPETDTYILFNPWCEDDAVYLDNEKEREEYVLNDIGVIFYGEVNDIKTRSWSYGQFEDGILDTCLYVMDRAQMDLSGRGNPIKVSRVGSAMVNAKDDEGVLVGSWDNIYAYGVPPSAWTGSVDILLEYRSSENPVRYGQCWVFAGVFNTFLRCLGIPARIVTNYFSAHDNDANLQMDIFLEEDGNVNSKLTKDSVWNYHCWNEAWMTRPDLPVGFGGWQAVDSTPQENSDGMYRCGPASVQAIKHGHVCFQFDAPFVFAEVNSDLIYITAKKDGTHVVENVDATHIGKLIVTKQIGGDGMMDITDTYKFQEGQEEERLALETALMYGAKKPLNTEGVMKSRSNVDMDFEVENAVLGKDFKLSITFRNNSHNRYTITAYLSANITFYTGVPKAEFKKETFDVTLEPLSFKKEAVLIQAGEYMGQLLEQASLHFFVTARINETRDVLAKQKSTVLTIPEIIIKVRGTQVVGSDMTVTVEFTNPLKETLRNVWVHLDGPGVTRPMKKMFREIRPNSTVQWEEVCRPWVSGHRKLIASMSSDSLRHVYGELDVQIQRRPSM

hTGase 3 = molecular target: T3, hTGase 3 (Homo sapiens, UniProt Q08188)
T3 sequence (Q08188 2-467 limits assumed): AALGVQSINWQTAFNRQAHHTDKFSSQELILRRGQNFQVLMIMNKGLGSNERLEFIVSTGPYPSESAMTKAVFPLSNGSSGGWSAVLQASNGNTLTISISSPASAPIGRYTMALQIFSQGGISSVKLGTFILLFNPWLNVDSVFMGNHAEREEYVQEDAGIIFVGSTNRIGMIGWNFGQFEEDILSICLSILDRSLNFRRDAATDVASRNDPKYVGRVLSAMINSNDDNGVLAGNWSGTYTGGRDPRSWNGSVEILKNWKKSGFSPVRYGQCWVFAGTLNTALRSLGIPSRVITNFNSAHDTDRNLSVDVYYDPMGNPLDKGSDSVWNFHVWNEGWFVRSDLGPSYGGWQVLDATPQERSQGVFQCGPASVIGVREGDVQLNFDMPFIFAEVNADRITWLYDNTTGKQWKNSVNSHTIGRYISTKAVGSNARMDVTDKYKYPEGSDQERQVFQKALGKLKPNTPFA
T3 sequence (Q08188 468-693 partner limits assumed): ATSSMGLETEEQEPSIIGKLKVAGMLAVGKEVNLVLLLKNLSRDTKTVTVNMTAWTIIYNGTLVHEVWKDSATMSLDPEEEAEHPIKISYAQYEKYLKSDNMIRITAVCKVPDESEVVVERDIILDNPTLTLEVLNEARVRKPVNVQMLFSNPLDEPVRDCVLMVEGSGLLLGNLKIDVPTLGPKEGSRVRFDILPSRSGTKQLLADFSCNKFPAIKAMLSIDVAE

hTGase 2 = molecular target: T4, hTGase 2 (Homo sapiens, UniProt P21980); details: DMC 30 µM, mean (SEM)
T4 sequence (P21980 1-687): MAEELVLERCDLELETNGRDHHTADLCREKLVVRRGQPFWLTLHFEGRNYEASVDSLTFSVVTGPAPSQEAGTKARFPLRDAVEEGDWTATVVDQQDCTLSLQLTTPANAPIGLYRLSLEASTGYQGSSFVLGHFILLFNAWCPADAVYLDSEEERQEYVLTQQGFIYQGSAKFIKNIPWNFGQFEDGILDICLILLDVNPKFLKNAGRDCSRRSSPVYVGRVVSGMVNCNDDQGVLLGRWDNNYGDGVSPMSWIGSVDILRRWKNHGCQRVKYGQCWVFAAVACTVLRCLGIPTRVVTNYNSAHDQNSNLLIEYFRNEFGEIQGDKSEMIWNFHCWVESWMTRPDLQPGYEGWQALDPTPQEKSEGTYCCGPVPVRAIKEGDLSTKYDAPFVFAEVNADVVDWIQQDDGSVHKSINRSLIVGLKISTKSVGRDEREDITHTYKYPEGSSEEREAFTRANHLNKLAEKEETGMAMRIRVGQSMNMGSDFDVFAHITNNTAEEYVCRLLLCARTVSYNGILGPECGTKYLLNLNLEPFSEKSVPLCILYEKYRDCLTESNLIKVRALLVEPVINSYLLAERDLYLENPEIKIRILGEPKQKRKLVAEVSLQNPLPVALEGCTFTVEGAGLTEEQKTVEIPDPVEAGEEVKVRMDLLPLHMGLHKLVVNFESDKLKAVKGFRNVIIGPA

[1] = IC50 hTGase 2, preincubation 5 min, R-I-Cad 0.81 µM, hTGase 2 2 µg/mL
[2] = IC50 hTGase 2, preincubation 30 min, R-I-Cad 0.74 µM, hTGase 2 5 µg/mL

Row | SMILES | IC50 (hTGase 1) | IC50 (hFXIIIa) | IC50 (hTGase 3) | IC50 (hTGase 2; [1]) | IC50 (hTGase 2; [2])
1 | C=CC(=O)NCCCC[C@H](NC(=O)Cc1ccccc1)C(=O)N1CCN(c2cccc(-c3cn(CCOCCOCCOCCNC(=O)CCCC[C@@H]4SC[C@@H]5NC(=O)N[C@@H]54)nn3)n2)CC1 [Compound 4, N-(2-(2-(2-(2-(4-(6-(4-(N^6-acryloyl-N^2-(2-phenylacetyl)-L-lysyl)piperazin-1-yl)pyridin-2-yl)-1H-1,2,3-triazol-1-yl)ethoxy)ethoxy)ethoxy)ethyl)-5-((3aS,4S,6aR)-2-oxohexahydro-1H-thieno[3,4-d]imidazol-4-yl)pentanamide] | 4.56 µM | 7.12 µM | > 100 µM | 249 nM | 68 nM
2 | C#Cc1cccc(N2CCN(C(=O)[C@H](CCCCNC(=O)C=C)NC(=O)Cc3ccccc3)CC2)n1 [Compound 3, N^α-Phenylacetyl-N^ε-acryloyl-L-lysine-4-(6-ethinylpyridin-2-yl)piperazide] | 10.2 µM | 26.2 µM | > 100 µM | 441 nM | 96 nM
3 | C=CC(=O)NCCCC[C@H](NC(=O)Cc1ccccc1)C(=O)N1CCN(c2ccc([N+](=O)[O-])nc2)CC1 [Compound 2] | 8.99 µM | 17.6 µM | 32.8 µM |  | 42 nM
4 | C=CC(=O)NCCCC[C@H](NC(=O)Cc1ccccc1)C(=O)N1CCN(c2cccc(C)n2)CC1 [Compound 1] | > 30 µM | > 30 µM | > 30 µM |  | 40 nM
